“Also recorded” adds a separate entry of the source. Bounds are passed on as bounds.

Consider one molecule from paper PMC10472371, “Discovery of E2730, a novel selective uncompetitive GAT1 inhibitor, as a candidate for anti‐seizure medication” (Epilepsia Open, 2023).

In one assay the target is T1, hBGT-1 (Homo sapiens, UniProt P48065).
T1 construct: expressed in transfected cells; host or cells: HEK293
T1 sequence (P48065 1-614): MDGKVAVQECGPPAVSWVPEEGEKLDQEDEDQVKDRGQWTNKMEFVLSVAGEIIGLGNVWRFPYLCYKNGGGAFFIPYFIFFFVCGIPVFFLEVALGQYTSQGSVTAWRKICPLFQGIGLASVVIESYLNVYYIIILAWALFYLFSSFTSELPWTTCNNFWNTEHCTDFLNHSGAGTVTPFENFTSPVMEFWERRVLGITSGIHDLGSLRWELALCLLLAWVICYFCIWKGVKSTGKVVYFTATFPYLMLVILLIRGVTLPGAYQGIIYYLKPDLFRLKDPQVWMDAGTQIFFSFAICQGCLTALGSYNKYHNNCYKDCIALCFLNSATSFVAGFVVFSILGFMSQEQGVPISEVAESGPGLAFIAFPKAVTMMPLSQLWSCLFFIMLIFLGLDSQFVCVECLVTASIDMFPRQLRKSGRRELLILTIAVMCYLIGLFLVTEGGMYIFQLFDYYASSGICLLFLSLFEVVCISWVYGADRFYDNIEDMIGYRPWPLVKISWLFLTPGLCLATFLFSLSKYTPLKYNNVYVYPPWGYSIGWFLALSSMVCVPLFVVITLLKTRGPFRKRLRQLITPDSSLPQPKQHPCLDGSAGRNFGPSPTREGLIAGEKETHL
Kind of assay: [3H]GABA uptake in hBGT-1 stably expressing HEK293 cells. It is filed as cell-based. Conditions: hBGT-1 HEK293 cells, 50 μM [3H]GABA. As to the method:
(§1) HEK293 cells stably expressing human GAT1 (hGAT1), GAT2 (hGAT2), GAT3 (hGAT3), or betaine/GABA transporter 1 (hBGT‐1) were plated onto 96‐well microtiter plates at a density of 4.0 × 10^4 cells/well in Dulbecco's Modified Eagle's Medium (DMEM, containing 10% fetal bovine serum, 100 units/mL penicillin, 100 μg/mL streptomycin, 1% non‐essential amino acid solution, and 25 mM HEPES) and incubated overnight at 37°C in a 5% CO2 atmosphere. After washing the cells with Hanks’ balanced salt solution (HBSS, containing 140 mg/L CaCl2, 100 mg/L MgCl2, 20 mM HEPES, and 10 mM NaOH), E2730 (0.0128–1000 μM) was added to the plate. Following the addition of 50 μM [^3H]GABA, cells were incubated for 5 minutes at 37°C in a 5% CO2 atmosphere and then washed with cold HBSS. Washed cells were incubated in a scintillator for 1 hour at room temperature, followed by radioactivity measurements using a liquid scintillation counter.

Assay [1] concerns extracellular GABA concentration in mouse hippocampus. Description: Microdialysis: extracellular GABA concentration in mouse hippocampus. It is filed as in vivo. The protocol: A guide cannula was implanted in the left hippocampus (2.7 mm posterior, 3.3 mm left, and 1.8 mm below from the bregma) of ddY mice (male, 5 weeks old). After 5–7 days of recovery, a microdialysis probe (Eicom) was inserted into the left hippocampus through the guide cannula. The tip of the microdialysis probe reached 4.8 mm below the bregma. The next day, the probe was connected to a perfusion tube and perfused with Ringer solution (containing 147.0 mM NaCl, 4.7 mM KCl, 0.6 mM MgSO4, 2.5 mM CaCl2, 5.0 mM HEPES, pH 7.4) at a flow rate of 1.5 μL/min. After ≥160 minutes of perfusion, collection of the perfusate (30 μL/20 min/fraction) was initiated, and 12 fractions per animal were collected for 240 minutes. E2730 (10–100 mg/kg), tiagabine (3–30 mg/kg), or vehicle was orally administered 72 minutes after initiating sample collection. Tiagabine was used as a reference ASM of a non‐competitive GAT1 inhibitor. Perfusate was switched from Ringer solution to high‐potassium Ringer solution (51.7 mM NaCl, 100.0 mM KCl, 0.6 mM MgSO4, 2.5 mM CaCl2, 5.0 mM HEPES, pH 7.4) after 127 minutes following the collection. GABA concentration in each sample was measured by a high‐performance liquid chromatography with tandem mass spectrometry method.

Another assay concerns the target T2, hGAT3 (Homo sapiens, UniProt P48066).
T2 construct: expressed in transfected cells; host or cells: HEK293
T2 sequence (P48066 1-632): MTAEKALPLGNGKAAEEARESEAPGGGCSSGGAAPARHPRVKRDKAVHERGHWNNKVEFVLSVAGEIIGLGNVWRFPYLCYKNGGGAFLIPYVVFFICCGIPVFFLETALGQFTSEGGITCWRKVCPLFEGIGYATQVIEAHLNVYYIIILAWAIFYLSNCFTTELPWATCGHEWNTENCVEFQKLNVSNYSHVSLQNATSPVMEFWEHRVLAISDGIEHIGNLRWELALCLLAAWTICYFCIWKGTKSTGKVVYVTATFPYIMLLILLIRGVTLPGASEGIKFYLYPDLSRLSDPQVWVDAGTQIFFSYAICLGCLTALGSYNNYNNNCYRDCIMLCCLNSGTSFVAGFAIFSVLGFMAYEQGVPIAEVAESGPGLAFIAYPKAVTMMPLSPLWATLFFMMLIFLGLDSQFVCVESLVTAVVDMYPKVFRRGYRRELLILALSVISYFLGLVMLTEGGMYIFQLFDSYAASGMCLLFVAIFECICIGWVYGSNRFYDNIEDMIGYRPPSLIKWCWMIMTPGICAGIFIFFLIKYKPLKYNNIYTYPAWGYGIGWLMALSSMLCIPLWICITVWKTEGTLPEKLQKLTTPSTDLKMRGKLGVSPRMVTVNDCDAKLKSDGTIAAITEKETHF
Description: [3H]GABA uptake in hGAT3 stably expressing HEK293 cells. It counts as cell-based. As to conditions: 50 μM [3H]GABA. The protocol: as §1

The test system of another assay is Fmr1 KO mice. Description: Audiogenic seizures in Fmr1 knockout mice (fragile X syndrome model). It is filed as in vivo. Conditions: Mus musculus, oral, 1 hour before audio stimulation, read-out: ED50 (95% CI) for tonic-clonic seizures, audiogenic seizures. The protocol: Fragile X syndrome (FXS) is the most common single‐gene cause of autism spectrum disorder, typically due to mutations in the FMR1 gene; 10–18% of patients with FXS experience seizures.[8] The Fmr1 knockout (KO) mouse is an established animal model for FXS. E2730 (2.5–300 mg/kg) or vehicle was orally administered to Fmr1 KO mice (male, 20–27 days postnatal; Jackson Laboratory) 1 hour prior to drug evaluation. The mice were placed in a sound‐attenuating acoustic chamber and acclimated for 5 minutes and exposed to an audio stimulation (110 dB, 60‐second duration), and the behavior of the stimulated mice was video recorded and monitored for tonic–clonic seizures.

Where [2] appears, read: mouse hippocampus, oral, E2730 10-100 mg/kg, tiagabine 3-30 mg/kg.

`NS(=O)(=O)N[C@H]1c2c(F)cc(F)cc2CC1(F)F` [E2730]: the half-maximal inhibitory concentration (IC50) was 890 µM at hBGT-1 and more than 1000 µM against hGAT3. Further, the “effect on high-potassium-induced extracellular GABA concentration” value in assay [1] (E2730 10 mg/kg) was “not statistically significant”; in assay [1] (E2730 30 and 100 mg/kg), “significantly increased”; in assay [1] (setting [2]), “significant increase”. For the same molecule, the “effect on basal extracellular GABA concentration” value in assay [1] (setting [2]) is given as “no significant difference; also recorded: did not increase; also recorded: did not affect”. In addition, the ED50 in the assay with Fmr1 KO mice was 17.1 mg/kg.
